Paper PMC8401933 (Molecules, 2021)

Columns and labels:
Assay in all cases: KINOMEscan binding
DCAMKL2 = molecular target: T1, DCAMKL2 (Homo sapiens, UniProt Q8N568); conditions: read-out: Percent Control
T1 construct: purchased Eurofins DiscoverX KINOMEscan

LRRK2(G2019S) = molecular target: T2, LRRK2(G2019S) (Homo sapiens, UniProt Q5S007, G2019S); conditions: read-out: Percent Control
T2 construct: purchased Eurofins DiscoverX KINOMEscan

CSNK1A1 = molecular target: T3, CSNK1A1 (Homo sapiens, UniProt P48729); conditions: read-out: Percent Control
T3 construct: purchased Eurofins DiscoverX KINOMEscan
T3 sequence (P48729 whole entry): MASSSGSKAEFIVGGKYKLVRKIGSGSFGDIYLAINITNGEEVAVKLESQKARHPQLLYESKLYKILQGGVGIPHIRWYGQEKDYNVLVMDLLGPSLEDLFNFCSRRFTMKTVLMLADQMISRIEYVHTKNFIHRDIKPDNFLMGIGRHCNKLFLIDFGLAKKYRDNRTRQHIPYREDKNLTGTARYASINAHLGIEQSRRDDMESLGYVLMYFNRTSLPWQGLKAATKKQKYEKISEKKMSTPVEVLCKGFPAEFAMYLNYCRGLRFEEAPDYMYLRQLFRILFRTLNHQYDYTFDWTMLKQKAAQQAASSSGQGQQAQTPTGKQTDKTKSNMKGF

MST1 = molecular target: T4, MST1 (Homo sapiens, UniProt Q13043); conditions: read-out: Percent Control
T4 construct: purchased Eurofins DiscoverX KINOMEscan

MELK = molecular target: T5, MELK (Homo sapiens, UniProt Q14680); conditions: read-out: Percent Control
T5 construct: purchased Eurofins DiscoverX KINOMEscan

SYK = molecular target: T6, SYK (Homo sapiens, UniProt P43405); conditions: read-out: Percent Control
T6 construct: purchased Eurofins DiscoverX KINOMEscan

WNK4 = molecular target: T7, WNK4 (Homo sapiens, UniProt Q96J92); conditions: read-out: Percent Control
T7 construct: purchased Eurofins DiscoverX KINOMEscan

BMPR1B = molecular target: T8, BMPR1B (Homo sapiens, UniProt O00238); conditions: read-out: Percent Control
T8 construct: purchased Eurofins DiscoverX KINOMEscan

NEK10 = molecular target: T9, NEK10 (Homo sapiens, UniProt Q6ZWH5); conditions: read-out: Percent Control
T9 construct: purchased Eurofins DiscoverX KINOMEscan

AKT3 = molecular target: T10, AKT3 (Homo sapiens, UniProt Q9Y243); conditions: read-out: Percent Control
T10 construct: purchased Eurofins DiscoverX KINOMEscan

PIK3CA(H1047L) = molecular target: T11, PIK3CA(H1047L) (Homo sapiens, UniProt P42336, H1047L); conditions: read-out: Percent Control
T11 construct: purchased Eurofins DiscoverX KINOMEscan
T11 sequence (P42336 whole entry H1047L): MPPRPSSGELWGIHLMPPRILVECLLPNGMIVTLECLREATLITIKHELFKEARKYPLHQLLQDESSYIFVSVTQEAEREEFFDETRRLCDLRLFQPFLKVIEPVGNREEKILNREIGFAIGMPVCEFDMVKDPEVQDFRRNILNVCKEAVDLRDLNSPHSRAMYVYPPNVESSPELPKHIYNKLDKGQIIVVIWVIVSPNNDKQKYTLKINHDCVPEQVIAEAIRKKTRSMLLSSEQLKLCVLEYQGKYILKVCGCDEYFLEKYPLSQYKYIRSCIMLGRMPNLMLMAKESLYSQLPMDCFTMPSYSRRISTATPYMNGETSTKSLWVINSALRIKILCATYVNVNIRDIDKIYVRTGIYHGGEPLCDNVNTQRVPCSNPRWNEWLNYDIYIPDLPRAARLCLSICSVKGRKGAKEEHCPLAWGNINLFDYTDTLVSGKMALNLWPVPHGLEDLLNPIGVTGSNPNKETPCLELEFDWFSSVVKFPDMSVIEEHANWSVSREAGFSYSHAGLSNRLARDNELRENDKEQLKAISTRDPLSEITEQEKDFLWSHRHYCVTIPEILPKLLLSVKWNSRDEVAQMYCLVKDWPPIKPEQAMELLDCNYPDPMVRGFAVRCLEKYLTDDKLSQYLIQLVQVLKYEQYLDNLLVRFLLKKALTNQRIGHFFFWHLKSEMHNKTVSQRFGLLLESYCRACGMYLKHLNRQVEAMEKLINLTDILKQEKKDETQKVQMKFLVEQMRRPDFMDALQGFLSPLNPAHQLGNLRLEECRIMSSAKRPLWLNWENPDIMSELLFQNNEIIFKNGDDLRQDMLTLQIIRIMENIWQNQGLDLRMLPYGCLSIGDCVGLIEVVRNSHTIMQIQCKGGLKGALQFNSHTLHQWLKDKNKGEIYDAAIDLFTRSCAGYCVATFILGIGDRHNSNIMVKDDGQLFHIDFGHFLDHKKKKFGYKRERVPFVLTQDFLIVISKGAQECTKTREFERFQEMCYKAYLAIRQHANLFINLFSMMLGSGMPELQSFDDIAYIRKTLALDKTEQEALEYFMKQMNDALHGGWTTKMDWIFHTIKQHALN

ERK3 = molecular target: T12, ERK3 (Homo sapiens, UniProt Q16659); conditions: read-out: Percent Control
T12 construct: purchased Eurofins DiscoverX KINOMEscan

MARK2 = molecular target: T13, MARK2 (Homo sapiens, UniProt Q7KZI7); conditions: read-out: Percent Control
T13 construct: purchased Eurofins DiscoverX KINOMEscan

PRKCD = molecular target: T14, PRKCD (Homo sapiens, UniProt Q05655); conditions: read-out: Percent Control
T14 construct: purchased Eurofins DiscoverX KINOMEscan

MAP3K1 = molecular target: T15, MAP3K1 (Homo sapiens, UniProt Q13233); conditions: read-out: Percent Control
T15 construct: purchased Eurofins DiscoverX KINOMEscan

RET(V804M) = molecular target: T16, RET(V804M) (Homo sapiens, UniProt P07949, V804M); conditions: read-out: Percent Control
T16 construct: purchased Eurofins DiscoverX KINOMEscan

IRAK3 = molecular target: T17, IRAK3 (Homo sapiens, UniProt Q9Y616); conditions: read-out: Percent Control
T17 construct: purchased Eurofins DiscoverX KINOMEscan
T17 sequence (Q9Y616 whole entry): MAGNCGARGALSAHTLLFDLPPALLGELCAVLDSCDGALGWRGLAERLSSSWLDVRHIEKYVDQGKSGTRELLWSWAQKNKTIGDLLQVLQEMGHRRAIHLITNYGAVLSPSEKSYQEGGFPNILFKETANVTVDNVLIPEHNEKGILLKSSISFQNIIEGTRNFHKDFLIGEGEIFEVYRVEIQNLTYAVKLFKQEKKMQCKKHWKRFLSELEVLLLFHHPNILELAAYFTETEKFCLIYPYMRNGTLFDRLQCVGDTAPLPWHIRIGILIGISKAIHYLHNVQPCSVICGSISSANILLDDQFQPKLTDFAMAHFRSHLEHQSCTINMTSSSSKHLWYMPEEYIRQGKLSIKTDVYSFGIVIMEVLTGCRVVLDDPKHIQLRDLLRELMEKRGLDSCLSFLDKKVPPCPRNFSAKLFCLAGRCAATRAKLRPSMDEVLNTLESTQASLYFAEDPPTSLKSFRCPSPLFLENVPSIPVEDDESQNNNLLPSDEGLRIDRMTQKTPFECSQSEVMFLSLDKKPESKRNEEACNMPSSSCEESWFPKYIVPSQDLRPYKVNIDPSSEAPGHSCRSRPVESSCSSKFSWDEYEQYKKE

ULK3 = molecular target: T18, ULK3 (Homo sapiens, UniProt Q6PHR2); conditions: read-out: Percent Control
T18 construct: purchased Eurofins DiscoverX KINOMEscan
T18 sequence (Q6PHR2 whole entry): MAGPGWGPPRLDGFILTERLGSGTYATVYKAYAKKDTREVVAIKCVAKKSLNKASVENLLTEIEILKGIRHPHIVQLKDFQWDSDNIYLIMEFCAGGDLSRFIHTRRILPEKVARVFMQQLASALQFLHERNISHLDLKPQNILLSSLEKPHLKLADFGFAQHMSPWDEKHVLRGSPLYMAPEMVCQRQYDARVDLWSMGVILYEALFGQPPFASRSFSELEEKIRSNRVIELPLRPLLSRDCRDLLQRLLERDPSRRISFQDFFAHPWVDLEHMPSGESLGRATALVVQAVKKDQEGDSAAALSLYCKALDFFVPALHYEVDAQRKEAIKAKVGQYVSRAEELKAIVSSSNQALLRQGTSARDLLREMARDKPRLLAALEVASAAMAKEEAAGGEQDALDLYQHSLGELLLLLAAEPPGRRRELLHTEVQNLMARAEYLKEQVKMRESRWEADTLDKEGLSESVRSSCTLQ

GRK4 = molecular target: T19, GRK4 (Homo sapiens, UniProt P32298); conditions: read-out: Percent Control
T19 construct: purchased Eurofins DiscoverX KINOMEscan

PCTK3 = molecular target: T20, PCTK3 (Homo sapiens, UniProt Q07002); conditions: read-out: Percent Control
T20 construct: purchased Eurofins DiscoverX KINOMEscan

[1] = molecular target: T21, JAK1(JH1domain-catalytic) (Homo sapiens, UniProt P23458); conditions: read-out: Percent Control
T21 construct: JAK1(JH1domain-catalytic); purchased Eurofins DiscoverX KINOMEscan

[2] = molecular target: T22, TYK2(JH2domain-pseudokinase) (Homo sapiens, UniProt P29597); conditions: read-out: Percent Control
T22 construct: TYK2(JH2domain-pseudokinase); purchased Eurofins DiscoverX KINOMEscan

TGFBR2 = molecular target: T23, TGFBR2 (Homo sapiens, UniProt P37173); conditions: read-out: Percent Control
T23 construct: purchased Eurofins DiscoverX KINOMEscan

MAP3K3 = molecular target: T24, MAP3K3 (Homo sapiens, UniProt Q99759); conditions: read-out: Percent Control
T24 construct: purchased Eurofins DiscoverX KINOMEscan

AURKC = molecular target: T25, AURKC (Homo sapiens, UniProt Q9UQB9); conditions: read-out: Percent Control
T25 construct: purchased Eurofins DiscoverX KINOMEscan

CSNK2A1 = molecular target: T26, CSNK2A1 (Homo sapiens, UniProt P68400)
T26 construct: purchased Eurofins DiscoverX KINOMEscan
T26 sequence (P68400 whole entry): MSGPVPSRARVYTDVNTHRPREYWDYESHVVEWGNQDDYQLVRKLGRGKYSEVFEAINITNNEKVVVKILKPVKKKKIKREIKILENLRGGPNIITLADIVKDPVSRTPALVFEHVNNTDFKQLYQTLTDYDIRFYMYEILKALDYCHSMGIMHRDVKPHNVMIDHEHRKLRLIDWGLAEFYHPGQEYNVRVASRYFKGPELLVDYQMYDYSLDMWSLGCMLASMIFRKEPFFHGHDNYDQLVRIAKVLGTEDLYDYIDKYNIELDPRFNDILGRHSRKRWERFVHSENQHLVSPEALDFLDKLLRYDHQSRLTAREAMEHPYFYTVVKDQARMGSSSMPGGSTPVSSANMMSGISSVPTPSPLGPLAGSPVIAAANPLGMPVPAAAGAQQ

YANK2 = molecular target: T27, YANK2 (Homo sapiens, UniProt Q9NY57); conditions: read-out: Percent Control
T27 construct: purchased Eurofins DiscoverX KINOMEscan

PRKCE = molecular target: T28, PRKCE (Homo sapiens, UniProt Q02156); conditions: read-out: Percent Control
T28 construct: purchased Eurofins DiscoverX KINOMEscan

AURKB = molecular target: T29, AURKB (Homo sapiens, UniProt Q96GD4); conditions: read-out: Percent Control
T29 construct: purchased Eurofins DiscoverX KINOMEscan

SGK3 = molecular target: T30, SGK3 (Homo sapiens, UniProt Q96BR1); conditions: read-out: Percent Control
T30 construct: purchased Eurofins DiscoverX KINOMEscan

ARK5 = molecular target: T31, ARK5 (Homo sapiens, UniProt O60285); conditions: read-out: Percent Control
T31 construct: purchased Eurofins DiscoverX KINOMEscan

SIK = molecular target: T32, SIK (Homo sapiens, UniProt P57059); conditions: read-out: Percent Control
T32 construct: purchased Eurofins DiscoverX KINOMEscan

PIP5K2B = molecular target: T33, PIP5K2B (Homo sapiens, UniProt P78356); conditions: read-out: Percent Control
T33 construct: purchased Eurofins DiscoverX KINOMEscan

EPHB6 = molecular target: T34, EPHB6 (Homo sapiens, UniProt O15197); conditions: read-out: Percent Control
T34 construct: purchased Eurofins DiscoverX KINOMEscan
T34 sequence (O15197 32-1021): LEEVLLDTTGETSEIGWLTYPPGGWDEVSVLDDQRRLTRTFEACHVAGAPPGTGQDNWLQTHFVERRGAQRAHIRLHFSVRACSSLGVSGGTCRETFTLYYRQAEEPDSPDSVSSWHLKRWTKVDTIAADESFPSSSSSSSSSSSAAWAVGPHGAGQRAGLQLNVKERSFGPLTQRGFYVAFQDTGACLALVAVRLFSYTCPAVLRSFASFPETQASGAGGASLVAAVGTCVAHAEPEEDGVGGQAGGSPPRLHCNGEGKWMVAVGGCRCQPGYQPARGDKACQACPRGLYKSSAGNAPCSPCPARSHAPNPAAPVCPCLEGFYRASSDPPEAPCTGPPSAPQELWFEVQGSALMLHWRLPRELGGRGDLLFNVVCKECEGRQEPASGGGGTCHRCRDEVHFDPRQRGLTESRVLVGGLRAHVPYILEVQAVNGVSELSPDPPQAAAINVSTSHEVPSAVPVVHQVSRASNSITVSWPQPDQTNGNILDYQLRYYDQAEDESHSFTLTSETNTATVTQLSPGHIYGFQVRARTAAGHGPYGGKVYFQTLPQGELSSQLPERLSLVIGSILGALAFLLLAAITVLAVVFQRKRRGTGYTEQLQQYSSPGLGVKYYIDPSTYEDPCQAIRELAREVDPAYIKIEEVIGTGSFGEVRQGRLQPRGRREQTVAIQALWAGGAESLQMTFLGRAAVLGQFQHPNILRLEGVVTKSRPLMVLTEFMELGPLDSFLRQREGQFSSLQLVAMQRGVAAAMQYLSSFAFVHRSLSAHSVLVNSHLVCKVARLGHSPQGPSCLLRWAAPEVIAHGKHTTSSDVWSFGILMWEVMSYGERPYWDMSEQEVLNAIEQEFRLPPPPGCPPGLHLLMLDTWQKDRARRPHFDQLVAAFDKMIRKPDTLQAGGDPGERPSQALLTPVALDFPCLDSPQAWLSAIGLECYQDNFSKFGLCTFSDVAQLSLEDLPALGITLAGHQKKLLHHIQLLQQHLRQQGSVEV

SBK1 = molecular target: T35, SBK1 (Homo sapiens, UniProt Q52WX2); conditions: read-out: Percent Control
T35 construct: purchased Eurofins DiscoverX KINOMEscan
T35 sequence (Q52WX2 whole entry): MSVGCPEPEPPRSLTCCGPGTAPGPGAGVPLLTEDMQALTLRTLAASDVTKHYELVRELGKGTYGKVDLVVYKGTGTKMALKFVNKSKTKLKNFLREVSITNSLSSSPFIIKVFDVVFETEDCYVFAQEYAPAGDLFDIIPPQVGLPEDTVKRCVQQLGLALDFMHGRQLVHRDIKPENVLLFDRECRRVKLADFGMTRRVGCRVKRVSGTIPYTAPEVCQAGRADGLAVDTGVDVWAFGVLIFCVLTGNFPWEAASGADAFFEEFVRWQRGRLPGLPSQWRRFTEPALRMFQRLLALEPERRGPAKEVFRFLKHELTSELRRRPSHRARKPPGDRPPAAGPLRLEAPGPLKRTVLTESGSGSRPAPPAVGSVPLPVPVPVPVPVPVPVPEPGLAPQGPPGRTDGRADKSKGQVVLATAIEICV

GAK = molecular target: T36, GAK (Homo sapiens, UniProt O14976); conditions: read-out: Percent Control
T36 construct: purchased Eurofins DiscoverX KINOMEscan

PHKG2 = molecular target: T37, PHKG2 (Homo sapiens, UniProt P15735); conditions: read-out: Percent Control
T37 construct: purchased Eurofins DiscoverX KINOMEscan

SRMS = molecular target: T38, SRMS (Homo sapiens, UniProt Q9H3Y6); conditions: read-out: Percent Control
T38 construct: purchased Eurofins DiscoverX KINOMEscan

PIK3CB = molecular target: T39, PIK3CB (Homo sapiens, UniProt P42338); conditions: read-out: Percent Control
T39 construct: purchased Eurofins DiscoverX KINOMEscan

BMX = molecular target: T40, BMX (Homo sapiens, UniProt P51813); conditions: read-out: Percent Control
T40 construct: purchased Eurofins DiscoverX KINOMEscan
T40 sequence (P51813 whole entry): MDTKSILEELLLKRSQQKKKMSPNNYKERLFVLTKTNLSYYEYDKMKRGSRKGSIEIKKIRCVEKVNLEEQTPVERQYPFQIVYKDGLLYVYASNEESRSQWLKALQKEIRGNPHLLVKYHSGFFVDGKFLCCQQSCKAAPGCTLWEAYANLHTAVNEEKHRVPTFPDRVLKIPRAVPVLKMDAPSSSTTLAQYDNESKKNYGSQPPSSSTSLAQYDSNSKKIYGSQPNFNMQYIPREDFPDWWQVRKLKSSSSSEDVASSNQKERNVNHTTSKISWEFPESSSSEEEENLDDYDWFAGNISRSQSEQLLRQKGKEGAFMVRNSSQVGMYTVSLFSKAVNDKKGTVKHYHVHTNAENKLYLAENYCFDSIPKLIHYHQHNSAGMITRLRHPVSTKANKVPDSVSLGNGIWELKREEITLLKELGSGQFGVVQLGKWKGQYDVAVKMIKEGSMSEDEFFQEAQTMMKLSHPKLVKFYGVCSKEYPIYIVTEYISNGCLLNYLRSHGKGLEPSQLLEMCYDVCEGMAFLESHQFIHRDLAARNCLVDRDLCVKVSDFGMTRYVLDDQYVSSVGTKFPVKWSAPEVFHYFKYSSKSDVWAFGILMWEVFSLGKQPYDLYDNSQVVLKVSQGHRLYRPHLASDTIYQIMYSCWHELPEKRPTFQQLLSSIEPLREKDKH

AKT1 = molecular target: T41, AKT1 (Homo sapiens, UniProt P31749); conditions: read-out: Percent Control
T41 construct: purchased Eurofins DiscoverX KINOMEscan

ERK4 = molecular target: T42, ERK4 (Homo sapiens, UniProt P31152); conditions: read-out: Percent Control
T42 construct: purchased Eurofins DiscoverX KINOMEscan

IKK-beta = molecular target: T43, IKK-beta (Homo sapiens, UniProt O14920); conditions: read-out: Percent Control
T43 construct: purchased Eurofins DiscoverX KINOMEscan

MYLK = molecular target: T44, MYLK (Homo sapiens, UniProt Q15746); conditions: read-out: Percent Control
T44 construct: purchased Eurofins DiscoverX KINOMEscan

CC(C)NC(=O)COc1cccc(-c2nc(Nc3ccc4[nH]ncc4c3)c3ccccc3n2)c1 [KD025, 2-(3-(4-((1H-indazol-5-yl)amino)quinazolin-2-yl)phenoxy)-N-isopropylacetamide]
remaining binding at 10 µM (DCAMKL2): 79% | remaining binding at 10 µM (LRRK2(G2019S)): 99% | remaining binding at 10 µM (CSNK1A1): 80% | remaining binding at 10 µM (MST1): 82% | remaining binding at 10 µM (MELK): 83% | remaining binding at 10 µM (SYK): 100% | remaining binding at 10 µM (WNK4): 100% | remaining binding at 10 µM (BMPR1B): 76% | remaining binding at 10 µM (NEK10): 96% | remaining binding at 10 µM (AKT3): 100% | remaining binding at 10 µM (PIK3CA(H1047L)): 82% | remaining binding at 10 µM (ERK3): 64% | remaining binding at 10 µM (MARK2): 71% | remaining binding at 10 µM (PRKCD): 70% | remaining binding at 10 µM (MAP3K1): 85% | remaining binding at 10 µM (RET(V804M)): 59% | remaining binding at 10 µM (IRAK3): 96% | remaining binding at 10 µM (ULK3): 90% | remaining binding at 10 µM (GRK4): 16% | remaining binding at 10 µM (PCTK3): 81% | remaining binding at 10 µM [1]: 99% | remaining binding at 10 µM [2]: 81% | remaining binding at 10 µM (TGFBR2): 100% | remaining binding at 10 µM (MAP3K3): 80% | remaining binding at 10 µM (AURKC): 18% | CK2α and CK2α’ inhibited less than ROCK2 (POC) (CSNK2A1; 10 μM): 10 fold | remaining binding at 10 µM (CSNK2A1; CSNK2A1, read-out: Percent Control): 0.5% | remaining binding at 10 µM (YANK2): 88% | remaining binding at 10 µM (PRKCE): 88% | remaining binding at 10 µM (AURKB): 61% | remaining binding at 10 µM (SGK3): 79% | remaining binding at 10 µM (ARK5): 100% | remaining binding at 10 µM (SIK): 72% | remaining binding at 10 µM (PIP5K2B): 9.7% | remaining binding at 10 µM (EPHB6): 67% | remaining binding at 10 µM (SBK1): 100% | remaining binding at 10 µM (GAK): 10% | remaining binding at 10 µM (PHKG2): 100% | remaining binding at 10 µM (SRMS): 70% | remaining binding at 10 µM (PIK3CB): 89% | remaining binding at 10 µM (BMX): 69% | remaining binding at 10 µM (AKT1): 88% | remaining binding at 10 µM (ERK4): 100% | remaining binding at 10 µM (IKK-beta): 100% | remaining binding at 10 µM (MYLK): 66%
